Reference: ChEMBL document CHEMBL5500356, “Design, synthesis, and biological evaluation of novel benzimidazole derivatives as anti-cervical cancer agents through PI3K/Akt/mTOR pathway and tubulin inhibition” (Eur J Med Chem, 2024)

Assays:
SiHa = assay: Antiproliferative activity against human SiHa cells assessed as cell viability incubated for 48 hrs by MTT assay; assay type: functional, cell-based
HeLa = assay: Antiproliferative activity against human HeLa cells assessed as cell viability incubated for 48 hrs by MTT assay; assay type: functional, cell-based
[1] = Cytotoxicity against human HEK293T cells assessed as cell viability incubated for 48 hrs by MTT assay; assay type: toxicity, cell-based, HEK-293T
Ca-Ski = assay: Antiproliferative activity against human Ca-Ski cells assessed as cell viability incubated for 48 hrs by MTT assay; assay type: functional, cell-based
[2] = Cytotoxicity against human L02 cells assessed as cell viability incubated for 48 hrs by MTT assay; assay type: toxicity, cell-based

SMILES	IC50 (SiHa) [µM]	IC50 (HeLa) [µM]	IC50 at 48 h [1] [µM]	IC50 (Ca-Ski) [µM]	IC50 at 48 h [2] [µM]
COc1cc(OC)c(-c2nc3cc(N4CCN(C)CC4)c(C#Cc4ccccc4Cl)cc3[nH]2)cc1OC	6.07	2.96	4.55	5.34	2.04
COc1cc(-c2nc3cc(N4CCOCC4)c(C#Cc4ccccc4)cc3[nH]2)cc(OC)c1OC	7.07	8.07	3.73	6.45	9.09
COc1cc(-c2nc3cc(N4CCN(C)CC4)c(C#Cc4ccccc4Cl)cc3[nH]2)cc(OC)c1OC	1.4	1.73	0.8	3.15	1.29
COc1cc(OC)c(-c2nc3cc(N4CCOCC4)c(C#Cc4ccc(C(F)(F)F)cc4)cc3[nH]2)cc1OC	> 100	29.3	> 100	> 100	> 100
COc1cc(-c2nc3cc(N4CCOCC4)c(C#Cc4ccccc4F)cc3[nH]2)cc(OC)c1OC	> 100	8.6	38.6	10.7	6.98
COc1cc(-c2nc3cc(N4CCOCC4)c(/C=C/C(=O)N(C)C)cc3[nH]2)cc(OC)c1OC	> 100	14.5	2.53	48.5	> 100
COc1cc(OC)c(-c2nc3cc(N4CCN(C)CC4)c(C#Cc4ccc(Cl)cc4)cc3[nH]2)cc1OC	3.03	1.61	1.64	> 100	1.38
COc1cc(-c2nc3cc(N4CCOCC4)c(/C=C/C(=O)NC(C)(C)C)cc3[nH]2)cc(OC)c1OC	17	4.21	11.7	16	9.92
COc1cc(OC)c(-c2nc3cc(N4CCOCC4)c(C#Cc4ccccc4Cl)cc3[nH]2)cc1OC	24.4	16.9	0.68	22.5	18.9
COc1cc(OC)c(-c2nc3cc(N4CCN(C)CC4)c(C#Cc4ccccc4)cc3[nH]2)cc1OC	6.16	5.25	4.07	> 100	6.59
COc1cc(-c2nc3cc(N4CCOCC4)c(C#Cc4ccc(Cl)cc4)cc3[nH]2)cc(OC)c1OC	20.9	3.23	15.9	14.4	12.8
